In patent US11445724B2, “Insecticidal compounds” (SYNGENTA PARTICIPATIONS AG, priority 2013, dated 2022):

Experiments:
Format in all cases: in vivo
[1] = tested on: Diabrotica balteata (Corn root worm); assay: Diabrotica balteata (Corn root worm) larval mortality, artificial diet in 24-well MTP; conditions: 120 h, application rate 200 ppm (concentration in well 18 ppm), L2 larvae, larval mortality after 5 days
[2] = tested on: Myzus persicae (Green peach aphid); assay: Myzus persicae (Green peach aphid) mortality, sprayed sunflower leaf discs; conditions: foliar, 144 h, 200 ppm spray on sunflower leaf discs, mixed ages, mortality 6 DAT
[3] = tested on: Myzus persicae (Green peach aphid); assay: Myzus persicae (Green peach aphid) mortality, test compounds mixed with Sucrose solution under Parafilm; conditions: 120 h, 12.5 ppm in Sucrose solution, infested pea seedlings on Parafilm, mortality 5 days after infestation
[4] = tested on: Plutella xylostella (Diamond back moth); assay: Plutella xylostella (Diamond back moth) larval mortality, artificial diet in 24-well MTP; conditions: 144 h, application rate 200 ppm (concentration in well 18 ppm), L2 larvae, larval mortality after 6 days
[5] = tested on: Spodoptera littoralis (Egyptian cotton leafworm); assay: Spodoptera littoralis (Egyptian cotton leafworm) mortality, sprayed cotton leaf discs; conditions: foliar, 72 h, 200 ppm spray on cotton leaf discs, L1 larvae, mortality 3 DAT
[6] = tested on: Tetranychus urticae (Two-spotted spider mite); assay: Tetranychus urticae (Two-spotted spider mite) mortality, sprayed bean leaf discs; conditions: foliar, 192 h, 200 ppm spray on bean leaf discs, mixed ages, egg, larval and adult mortality after 8 days
[7] = tested on: Thrips tabaci (Onion thrips); assay: Thrips tabaci (Onion thrips) mortality, sprayed sunflower leaf discs; conditions: foliar, 168 h, 200 ppm spray on sunflower leaf discs, mixed ages, mortality after 7 days

COc1c(C(=O)C(C(C)=O)c2c(Br)cc(C(F)(C(F)(F)F)C(F)(F)F)cc2OC(F)F)cccc1N(C)C(=O)c1ccncc1 (stereo not drawn) [Compound 99]
≥ 80%: pest or weed control at 200 ppm [1] | pest or weed control at 200 ppm [2] | pest or weed control at 12.5 ppm [3] | pest or weed control at 200 ppm [4] | pest or weed control at 200 ppm [5] | pest or weed control at 200 ppm [6] | pest or weed control at 200 ppm [7]

COc1c(NC(=O)c2ccc(F)cc2)cccc1C(=O)Nc1c(Cl)cc(C(F)(C(F)(F)F)C(F)(F)F)cc1OC(F)F [Compound 93]
≥ 80%: pest or weed control at 200 ppm [1] | pest or weed control at 200 ppm [2] | pest or weed control at 12.5 ppm [3] | pest or weed control at 200 ppm [4] | pest or weed control at 200 ppm [5] | pest or weed control at 200 ppm [6] | pest or weed control at 200 ppm [7]

CCN(C(=O)c1ccc(F)cc1Cl)c1cccc(C(=O)Nc2c(Br)cc(C(F)(C(F)(F)F)C(F)(F)F)cc2OC(F)F)c1OC [Compound 141]
≥ 80%: pest or weed control at 200 ppm [1] | pest or weed control at 200 ppm [2] | pest or weed control at 12.5 ppm [3] | pest or weed control at 200 ppm [4] | pest or weed control at 200 ppm [5] | pest or weed control at 200 ppm [6] | pest or weed control at 200 ppm [7]

O=C(Nc1cccc(C(=O)Nc2c(Br)cc(C(F)(C(F)(F)F)C(F)(F)F)cc2OC(F)F)c1F)c1ccc(F)cc1Cl [Compound 36]
≥ 80%: pest or weed control at 200 ppm [1] | pest or weed control at 200 ppm [2] | pest or weed control at 12.5 ppm [3] | pest or weed control at 200 ppm [4] | pest or weed control at 200 ppm [5] | pest or weed control at 200 ppm [6] | pest or weed control at 200 ppm [7]

O=C(Nc1cccc(C(=O)Nc2c(Cl)cc(C(F)(C(F)(F)F)C(F)(F)F)cc2OC(F)F)c1F)c1ccc(F)cc1 [Compound 70]
≥ 80%: pest or weed control at 200 ppm [1] | pest or weed control at 200 ppm [2] | pest or weed control at 12.5 ppm [3] | pest or weed control at 200 ppm [4] | pest or weed control at 200 ppm [5] | pest or weed control at 200 ppm [6] | pest or weed control at 200 ppm [7]

O=C(Nc1cccc(C(=O)Nc2c(Br)cc(C(F)(C(F)(F)F)C(F)(F)F)cc2OC(F)F)c1F)c1ccc([N+](=O)[O-])cc1 [Compound 22]
≥ 80%: pest or weed control at 200 ppm [1] | pest or weed control at 200 ppm [2] | pest or weed control at 12.5 ppm [3] | pest or weed control at 200 ppm [4] | pest or weed control at 200 ppm [5] | pest or weed control at 200 ppm [6] | pest or weed control at 200 ppm [7]

O=C(Nc1cccc(C(=O)Nc2c(Cl)cc(C(F)(C(F)(F)F)C(F)(F)F)cc2OC(F)F)c1F)c1ccc(C(F)(F)F)cc1 [Compound 64]
≥ 80%: pest or weed control at 200 ppm [1] | pest or weed control at 200 ppm [2] | pest or weed control at 12.5 ppm [3] | pest or weed control at 200 ppm [4] | pest or weed control at 200 ppm [5] | pest or weed control at 200 ppm [6] | pest or weed control at 200 ppm [7]

COc1c(NC(=O)c2ccc(C(F)(F)F)cc2)cccc1C(=O)Nc1c(Br)cc(C(F)(C(F)(F)F)C(F)(F)F)cc1OC(F)F [Compound 54]
≥ 80%: pest or weed control at 200 ppm [1] | pest or weed control at 200 ppm [2] | pest or weed control at 12.5 ppm [3] | pest or weed control at 200 ppm [4] | pest or weed control at 200 ppm [5] | pest or weed control at 200 ppm [6] | pest or weed control at 200 ppm [7]

O=C(Nc1cccc(C(=O)Nc2c(Br)cc(C(F)(C(F)(F)F)C(F)(F)F)cc2OC(F)F)c1F)c1cc(Cl)ccc1F [Compound 24]
≥ 80%: pest or weed control at 200 ppm [1] | pest or weed control at 200 ppm [2] | pest or weed control at 12.5 ppm [3] | pest or weed control at 200 ppm [4] | pest or weed control at 200 ppm [5] | pest or weed control at 200 ppm [6] | pest or weed control at 200 ppm [7]

N#Cc1ccc(C(=O)Nc2cccc(C(=O)Nc3c(Cl)cc(C(F)(C(F)(F)F)C(F)(F)F)cc3OC(F)F)c2F)cc1 [Compound 13]
≥ 80%: pest or weed control at 200 ppm [1] | pest or weed control at 200 ppm [2] | pest or weed control at 12.5 ppm [3] | pest or weed control at 200 ppm [4] | pest or weed control at 200 ppm [5] | pest or weed control at 200 ppm [6] | pest or weed control at 200 ppm [7]

CCN(C(=O)c1ccc(F)cc1Cl)c1cccc(C(=O)Nc2c(Cl)cc(C(F)(C(F)(F)F)C(F)(F)F)cc2OC(F)F)c1OC [Compound 158]
≥ 80%: pest or weed control at 200 ppm [1] | pest or weed control at 200 ppm [2] | pest or weed control at 12.5 ppm [3] | pest or weed control at 200 ppm [4] | pest or weed control at 200 ppm [5] | pest or weed control at 200 ppm [6] | pest or weed control at 200 ppm [7]

O=C(Nc1cccc(C(=O)Nc2c(Br)cc(C(F)(C(F)(F)F)C(F)(F)F)cc2OC(F)F)c1F)c1ccc(OC(F)(F)F)cc1 [Compound 26]
≥ 80%: pest or weed control at 200 ppm [1] | pest or weed control at 200 ppm [2] | pest or weed control at 12.5 ppm [3] | pest or weed control at 200 ppm [4] | pest or weed control at 200 ppm [5] | pest or weed control at 200 ppm [6] | pest or weed control at 200 ppm [7]

CCN(C(=O)c1cccc(F)c1F)c1cccc(C(=O)Nc2c(Br)cc(C(F)(C(F)(F)F)C(F)(F)F)cc2OC(F)F)c1F [Compound 108]
≥ 80%: pest or weed control at 200 ppm [1] | pest or weed control at 200 ppm [2] | pest or weed control at 12.5 ppm [3] | pest or weed control at 200 ppm [4] | pest or weed control at 200 ppm [5] | pest or weed control at 200 ppm [6] | pest or weed control at 200 ppm [7]

COc1c(NC(=O)c2ccc(F)cc2C)cccc1C(=O)Nc1c(Cl)cc(C(F)(C(F)(F)F)C(F)(F)F)cc1OC(F)F [Compound 84]
≥ 80%: pest or weed control at 200 ppm [1] | pest or weed control at 200 ppm [2] | pest or weed control at 12.5 ppm [3] | pest or weed control at 200 ppm [4] | pest or weed control at 200 ppm [5] | pest or weed control at 200 ppm [6] | pest or weed control at 200 ppm [7]

COc1c(C(=O)Nc2c(Br)cc(C(F)(C(F)(F)F)C(F)(F)F)cc2OC(F)F)cccc1N(C)C(=O)c1ccncc1 [Compound 102]
≥ 80%: pest or weed control at 200 ppm [1] | pest or weed control at 200 ppm [2] | pest or weed control at 12.5 ppm [3] | pest or weed control at 200 ppm [4] | pest or weed control at 200 ppm [5] | pest or weed control at 200 ppm [6] | pest or weed control at 200 ppm [7]

O=C(Nc1cccc(C(=O)Nc2c(Br)cc(C(F)(C(F)(F)F)C(F)(F)F)cc2OC(F)F)c1F)c1ccncc1 [Compound 1]
≥ 80%: pest or weed control at 200 ppm [1] | pest or weed control at 200 ppm [2] | pest or weed control at 12.5 ppm [3] | pest or weed control at 200 ppm [4] | pest or weed control at 200 ppm [5] | pest or weed control at 200 ppm [6] | pest or weed control at 200 ppm [7]

COc1c(NC(=O)c2ccc([N+](=O)[O-])cc2Cl)cccc1C(=O)Nc1c(Br)cc(C(F)(C(F)(F)F)C(F)(F)F)cc1OC(F)F [Compound 47]
≥ 80%: pest or weed control at 200 ppm [1] | pest or weed control at 200 ppm [2] | pest or weed control at 12.5 ppm [3] | pest or weed control at 200 ppm [4] | pest or weed control at 200 ppm [5] | pest or weed control at 200 ppm [6] | pest or weed control at 200 ppm [7]

Cc1cc(F)ccc1C(=O)Nc1cccc(C(=O)Nc2c(Cl)cc(C(F)(C(F)(F)F)C(F)(F)F)cc2OC(F)F)c1F [Compound 53]
≥ 80%: pest or weed control at 200 ppm [1] | pest or weed control at 200 ppm [2] | pest or weed control at 12.5 ppm [3] | pest or weed control at 200 ppm [4] | pest or weed control at 200 ppm [5] | pest or weed control at 200 ppm [6] | pest or weed control at 200 ppm [7]
